Measurements: paper PMC3938723, “Learning from Host-Defense Peptides: Cationic, Amphipathic Peptoids with Potent Anticancer Activity” (PLoS ONE, 2014)
Non-standard residues stand in square brackets, D forms with d. Residues, ends and D or L forms follow the SMILES beside them. Nspe = C[C@H](NCC(=O)O)c1ccccc1; Nphe = O=C(O)CNCc1ccccc1; Nlys = NCCCCNCC(=O)O

Legend:
MCF-7 (breast cancer) = test: MTS cell viability assay, MCF-7; assay type: cell-based; settings: 72 h
Method: (§1) MCF-7, MCF-7/TxT50 and OVCAR-3 (available in ATCC) were kindly provided by Professor Branimir Sikic's lab at Stanford University, and were cultured in McCoy's 5A media (GIBCO) with 10% FBS and antibiotics. Primary dermal fibroblasts were gifts from Lifeline Cell Technology and were cultured <6 passages according to the protocol Lifeline provides. All the cells were cultured in cell incubators (Thermo Scientific) at 37°C with 5% CO2.
(§2) This assay is a colorimetric method for determining the number of viable cells in proliferation. Aliquots of 100 µl media containing 1×10^4 cells were distributed into each well of a 96-well plate (BD Falcon). The following day, when cell density reaches about ∼40% confluency, the cell media were removed and replaced with serial dilutions of peptoid stocks in culturing media. For peptoid dilutions, peptoid stocks were initially diluted in media at 100 µM and then diluted by half in series using a multichannel pipette, and maintained in 100 µl media for each concentration with triple repeats. After peptoid solutions were transferred onto cells in 96-well plates, cells were incubated at 37°C for certain time periods. Then 20 µl of the CellTiter 96 Aqueous Non-Radioactive cell proliferation assay (Promega) reagent which contains a tetrazolium compound, [3-(4,5-dimethylthiazol-2-yl)-5-(3-carboxymethoxyphenyl)-2-(4-sulfophenyl)-2H-tetrazolium, inner salt; MTS(a)], was added to each well and cells were further incubated for 2 h to metabolize. The absorbance of formazan products were measured at 490 nm in a microplate reader (Molecular Devices). Percentage of cell viability = (A -A testblank)/(A control -A blank)×100, where A is the absorbance of the test well and A control the average absorbance of wells with cells not treated with peptoids. A testblank (media, MTS, and diluted peptoids) and A blank (media and MTS) were background absorbances measured in the absence of cells.
(§3) The activity and selectivity of these peptoids against cancer cells were evaluated in vitro. Their cytotoxicity was tested in three cancer cell lines, MCF-7 (human breast cancer), LNCaP (human prostate cancer), and OVCAR-3 (human ovarian cancer). To estimate the selectivity of these peptoids in vitro, hemolytic activities of some peptoids were cited from previously published work (Table 2 **column), and the MRC-5 cell line (human fibroblasts derived from fetal lung tissues) and primary dermal fibroblasts were also tested as normal cell controls. Briefly, cells were treated with peptoids diluted in culturing media for certain time periods, and then cell viability was measured via MTS assays.

[1] = Analytical RP-HPLC elution as relative measure of molecular hydrophobicity; assay type: physicochemical; settings: percentage of acetonitrile at elution, analytic RP-HPLC, C18 column, linear water/acetonitrile (0.1% trifluoroacetic acid) gradient 5%-95% acetonitrile over 30 min
From the text: Peptoids were synthesized using an ABI 433A peptide synthesizer (Applied Biosystems, Inc.) on Rink amide MBHA resin (EMD Biosciences, Gibbstown, NJ) using the submonomer protocol, [24]. Briefly, the amine on the nascent chain is bromoacetylated or chloroacetylated followed by SN2 displacement of bromide or chloride by a primary amine to form the side chain. Resin-bound peptoids were then exposed to a mixture of trifluoroacetic acid (TFA): triisopropylsilane: water (95∶2.5∶2.5, volume ratio) for 10 minutes to cleave peptoids from the resin. Crude peptoids were purified by reversed-phase high performance liquid chromatography (RP-HPLC) (Waters Corporation) using a C18 column and a linear acetonitrile/water gradient. A final purity >95% as measured by analytical RP-HPLC (Waters Corporation) was achieved, and the identity of each peptoid was confirmed using electrospray ionization mass spectrometry (ESI/MS). Pexiganan was synthesized by standard Fmoc chemistry on an ABI 433A peptide synthesizer ([…]). Unless indicated otherwise, all reagents were purchased from Sigma Aldrich (St. Louis, MO). Among the submonomers used, Nspe was derived from (S)-N-(1-phenylethyl)amine; Npm from benzylamine ([…]); NHis from histamine (2-[4-imidazolyl]ethylamine); NLeu from isobutylamine; NLys from N-tert-butoxycarbonyl-1,4-butanediamine (CNH Technologies, MA). Guanidinylation of NLys was carried out according to the reported procedure. When NHis was used in the peptoid sequence, chloroacetic acid was used. 5(6)-Carboxyfluorescein was used to label the N-terminus of peptoid 1 [28].
Peptoids were utilized herein as a peptidomimetic scaffold to capture the cationic, amphipathic nature of anticancer peptides, as well as to improve molecular stability and to increase chemical diversity. The design of anticancer peptoids were derived from previous antimicrobial peptoids and were further optimized hererin to improve the activity and selectivity of peptoids against anionic membranes, [24], [25]. […] Several novel variants were designed based on peptoid 1 but with different charges, amphipathicity, length, and helicity to change their activity or selectivity. The sequences of these variants, the solvent composition at RP-HPLC elution as a relative measure of molecular hydrophobicity, molecular net charges and their charge-to-length ratio are summarized in Table 1. […] Pexiganan, a clinically-relevant peptide analog of magainin 2 which was developed for topical treatment for diabetic foot infection, and LL-37, the only known human cathelicidin which is a non-selective antimicrobial peptide, were also tested for comparison.

[2] = test system: MRC-5 (fetal lung fibroblast); test: MTS cell viability assay, MRC-5; assay type: cell-based; settings: 72 h
Method: as §1, §2, §3

LNCaP (prostate cancer) = test: MTS cell viability assay, LNCaP; assay type: cell-based; settings: 72 h
Method: as §2, §3

human red blood cells = settings: cited from earlier work
From the text: Table 2 Peptoid Cytotoxicity in cancer cell lines and control cells. | column: HC10 (µM) ** || The chain length is believed to influence not only the activity but also modes of action of cationic, amphipathic peptides, [34]. […] Thus we limited the chain length of peptoids to 13 residues at most, and studied 1 9mer which has the same charge-to-length ratio (CTLR) as peptoid ...

OVCAR3 (ovarian cancer) = test: MTS cell viability assay, OVCAR3; assay type: cell-based; settings: 72 h
Method: as §1, §2, §3

[3] = test system: Primary dermal fibroblast; test: MTS cell viability assay, primary dermal fibroblasts; assay type: cell-based; settings: for LC50 Primary dermal fibroblast: 72 h
Method: as §1, §2, §3

MCF-7/TxT50 cells = test: MTS cell viability in multidrug-resistant MCF-7/TxT50 versus MCF-7; assay type: cell-based, human; settings: MTS assay, 72 h treatment
Method: as §1
This assay is a colorimetric method for determining the number of viable cells in proliferation. Aliquots of 100 µl media containing 1×10^4 cells were distributed into each well of a 96-well plate (BD Falcon). The following day, when cell density reaches about ∼40% confluency, the cell media were removed and replaced with serial dilutions of peptoid stocks in culturing media. […] The absorbance of formazan products were measured at 490 nm in a microplate reader (Molecular Devices). Percentage of cell viability = (A -A testblank)/(A control -A blank)×100, where A is the absorbance of the test well and A control the average absorbance of wells with cells not treated with peptoids. A testblank (media, MTS, and diluted peptoids) and A blank (media and MTS) were background absorbances measured in the absence of cells. […]
Figure 3 Activity of docetaxel and peptoids in MCF-7 and MCF-7/TxT50 cells. […] Cell viability was measured with MTS assays.

SMILES	LC50 MCF-7 (breast cancer) (MCF-7 (breast cancer))	HPLC elution [1]	LC50 MRC-5 (fetal lung fibroblast) [2]	LC50 LNCaP (prostate cancer) (LNCaP (prostate cancer))	HC10 (human red blood cells)	LC50 OVCAR3 (ovarian cancer) (OVCAR3 (ovarian cancer))	LC50 Primary dermal fibroblast [3]	selectivity ratio ([3]; LC50 in primary dermal fibroblast divided by LC50 in cancer cells)	activity in MCF-7/TxT50 (MDR1 overexpressing) compared to wild-type MCF-7 (MCF-7/TxT50 cells)
C[C@@H](c1ccccc1)N(CC(=O)N(CC(=O)N(CCCCN)CC(=O)N(CC(=O)N(CC(=O)N(CCCCN)CC(=O)N(CC(=O)N(CC(=O)N(CCCCN)CC(=O)N(CC(=O)N(CC(N)=O)Cc1ccccc1)Cc1ccccc1)Cc1ccccc1)Cc1ccccc1)Cc1ccccc1)Cc1ccccc1)Cc1ccccc1)C(=O)CNCCCCN [1 achiral-Nspe2, H-NLys-Nspe-Npm-(NLys-Npm-Npm)3-NH2] (H-[Nlys][Nspe][Nphe][Nlys][Nphe][Nphe][Nlys][Nphe][Nphe][Nlys][Nphe][Nphe]-NH2)	13 µM	60.8 % ACN	22 µM	11 µM	160 µM	16 µM	36 µM		
C[C@@H](c1ccccc1)N(CC(N)=O)C(=O)CN(C(=O)CN(CCCCN)C(=O)CN(C(=O)CN(C(=O)CN(CCCCN)C(=O)CN(C(=O)CN(C(=O)CNCCCCN)[C@@H](C)c1ccccc1)[C@@H](C)c1ccccc1)[C@@H](C)c1ccccc1)[C@@H](C)c1ccccc1)[C@@H](C)c1ccccc1 [1 9mer, H-(NLys-Nspe-Nspe)3-NH2] (H-[Nlys][Nspe][Nspe][Nlys][Nspe][Nspe][Nlys][Nspe][Nspe]-NH2)	30 µM	60 % ACN	40 µM	27 µM	150 µM	34 µM	32 µM		
C[C@@H](c1ccccc1)N(CC(N)=O)C(=O)CN(CCCCN)C(=O)CN(CCCCN)C(=O)CN(C(=O)CN(C(=O)CN(CCCCN)C(=O)CN(C(=O)CN(CCCCN)C(=O)CN(CCCCN)C(=O)CN(C(=O)CN(C(=O)CNCCCCN)[C@@H](C)c1ccccc1)[C@@H](C)c1ccccc1)[C@@H](C)c1ccccc1)[C@@H](C)c1ccccc1)[C@@H](C)c1ccccc1 [1-NLys5,11, H-(NLys-Nspe-Nspe-NLys-NLys-Nspe)2-NH2] (H-[Nlys][Nspe][Nspe][Nlys][Nlys][Nspe][Nlys][Nspe][Nspe][Nlys][Nlys][Nspe]-NH2)	31 µM	51.2 % ACN	41 µM	25 µM	>100 µM	37 µM	34 µM		
NCCCCNCC(=O)N(CC(=O)N(CC(=O)N(CCCCN)CC(=O)N(CC(=O)N(CC(=O)N(CCCCN)CC(=O)N(CC(=O)N(CC(=O)N(CCCCN)CC(=O)N(CC(=O)N(CC(N)=O)Cc1ccccc1)Cc1ccccc1)Cc1ccccc1)Cc1ccccc1)Cc1ccccc1)Cc1ccccc1)Cc1ccccc1)Cc1ccccc1 [1 achiral, H-(NLys-Npm-Npm)4-NH2] (H-[Nlys][Nphe][Nphe][Nlys][Nphe][Nphe][Nlys][Nphe][Nphe][Nlys][Nphe][Nphe]-NH2)	13 µM	59.8 % ACN	30 µM	11 µM	183 µM	16 µM	39 µM	~3	
CC(=O)O[C@@]12CO[C@@H]1C[C@H](O)[C@@]1(C)C(=O)[C@H](O)C3=C(C)[C@@H](OC(=O)[C@H](O)[C@@H](NC(=O)OC(C)(C)C)c4ccccc4)C[C@@](O)([C@@H](OC(=O)c4ccccc4)[C@H]21)C3(C)C [Docetaxel]									resistant
C[C@@H](c1ccccc1)N(CC(=O)N(CCCCN)CC(=O)N(CC(=O)N(CC(=O)N(CCCCN)CC(=O)N(CC(=O)N(CC(=O)N(CCCCN)CC(=O)N(CC(=O)N(CC(=O)N(CCCCN)CC(N)=O)[C@@H](C)c1ccccc1)[C@@H](C)c1ccccc1)[C@@H](C)c1ccccc1)[C@@H](C)c1ccccc1)[C@@H](C)c1ccccc1)[C@@H](C)c1ccccc1)C(=O)CN(C(=O)CNCCCCN)[C@@H](C)c1ccccc1 [1 13mer, H-(NLys-Nspe-Nspe)4-NLys-NH2] (H-[Nlys][Nspe][Nspe][Nlys][Nspe][Nspe][Nlys][Nspe][Nspe][Nlys][Nspe][Nspe][Nlys]-NH2)	8 µM	62.8 % ACN	10 µM	8 µM	21 µM	9 µM	14 µM		
